Laboratory results reported in patent US20240287042A1, “NOVEL COMPOUND HAVING INHIBITORY ACTIVITY AGAINST PENDRIN, AND PHARMACEUTICAL USES THEREOF” (UIF (University Industry Foundation), Yonsei University, priority 2021, published 2024).
pIC50: −log10 of the molar value.

Molecular target: T1, human wild-type (WT)-pendrin (Homo sapiens, UniProt O43511)
T1 construct: expressed in transfected cells
T1 sequence (O43511 1-780): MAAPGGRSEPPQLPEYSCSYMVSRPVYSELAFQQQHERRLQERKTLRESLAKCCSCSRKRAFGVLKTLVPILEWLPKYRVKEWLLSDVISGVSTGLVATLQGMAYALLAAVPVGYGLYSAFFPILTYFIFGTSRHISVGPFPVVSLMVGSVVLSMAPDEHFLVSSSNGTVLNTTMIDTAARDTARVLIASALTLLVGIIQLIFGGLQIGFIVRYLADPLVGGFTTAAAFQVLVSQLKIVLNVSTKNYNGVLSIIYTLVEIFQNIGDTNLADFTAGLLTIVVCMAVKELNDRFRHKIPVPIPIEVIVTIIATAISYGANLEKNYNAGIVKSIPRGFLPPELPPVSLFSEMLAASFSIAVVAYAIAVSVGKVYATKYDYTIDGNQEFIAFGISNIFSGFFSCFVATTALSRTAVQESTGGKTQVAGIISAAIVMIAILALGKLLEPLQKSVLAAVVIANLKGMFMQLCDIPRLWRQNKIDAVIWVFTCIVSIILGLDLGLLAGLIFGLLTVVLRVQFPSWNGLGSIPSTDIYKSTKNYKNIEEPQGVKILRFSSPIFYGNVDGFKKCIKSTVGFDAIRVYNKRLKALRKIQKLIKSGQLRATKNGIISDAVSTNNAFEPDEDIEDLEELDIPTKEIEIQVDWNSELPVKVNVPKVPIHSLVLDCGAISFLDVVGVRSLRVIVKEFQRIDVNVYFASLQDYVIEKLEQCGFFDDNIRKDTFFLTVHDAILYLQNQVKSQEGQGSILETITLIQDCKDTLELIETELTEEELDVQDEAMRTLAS
Assay: Pendrin Cl−/I− exchange inhibitory activity, YFP fluorescence in CHO-K1 cells
Type: cell-based
Settings: for pIC50: CHO-K1-YFP cells, read-out: IC50 of pendrin-induced Cl−/I− anion exchange; for pIC50 / Inhibition of pendrin-induced Cl−/I− anion exchange: FIG. 1; for inhibition at 1 µM / inhibition at 3 µM / inhibition at 10 µM / inhibition at 30 µM / inhibition at 100 µM: CHO-K1; for inhibition at 1 µM: compound concentration 1 μM; for inhibition at 3 µM: compound concentration 3 μM; for inhibition at 10 µM: compound concentration 10 μM; for inhibition at 30 µM: compound concentration 30 μM; for inhibition at 100 µM: compound concentration 100 μM
Method in brief: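 CHO-K1 cells stably co-expressing human WT pendrin and YFP-F46L/H148Q/I152L were preincubated with compound (1–100 µM, or 50 µM single dose) for 10 min at 37°C in HEPES buffer, pH 7.4. NaI solution was then injected and YFP quenching was recorded; the initial iodide influx rate came from the initial fluorescence slope.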

Row | Compound | pIC50 | inhibition at 1 µM | inhibition at 3 µM | inhibition at 10 µM | inhibition at 30 µM | inhibition at 100 µM | Inhibition of pendrin-induced Cl−/I− anion exchange | Efficacy on pendrin relative to YPI-H05 (ratio of IC50 values)
1 | Cc1ccc2[nH]c(C(=O)O)c(CC(=O)N3CCN(c4c(C)cccc4Cl)CC3)c2c1 [YPI-A4948, 3-(2-(4-(2-Chloro-6-methylphenyl)piperazin-1-yl)-2-oxoethyl)-5-methyl-1H-indole-2-carboxylic acid] | 6.24 | 70.5% | 93.6% | 100% | 100% | 100% | in a concentration-dependent manner | approximately 5 times
2 | Cc1ccc(C)c(N2CCN(C(=O)Cc3c(C(=O)O)[nH]c4ccc(Cl)cc34)CC2)c1 [YPI-H05, 5-chloro-3-(2-(4-(2,5-dimethylphenyl)piperazin-1-yl-)-2-oxoethyl)-1H-indole-2-carboxylic acid] | 5.57 | < 20% | 24.6% | 67.9% | 95.4% | 96.5% | in a concentration-dependent manner | –
